“Also recorded” adds a separate entry of the source.
Tests used:
Calu-3 monolayers = assay: Transepithelial short-circuit current (Isc) across unstimulated Calu-3 monolayers; format: cell-based, human; conditions: compound added to mucosal (or serosal) perfusion; L-ascorbic acid 100 μM; dehydroascorbic acid 10, 100 or 300 μM
Procedure, shortened: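 Unstimulated Calu-3 monolayers given compound on the mucosal side at increasing concentrations. Chloride current recorded with serosal-to-mucosal chloride gradient at 0 mV, 2 mV pulses. Forskolin (20 μM, serosal) used for comparison.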

[1] = system: nasal potential difference (NPD); assay: Nasal potential difference (NPD) measurements in healthy volunteers, Example 12; format: in vivo, human
Experimental: Nasal potential difference (NPD) measurements. Measurements of NPD were performed in healthy volunteers as described (Illek, B. & Fischer, H., Supra). The study protocol was approved by the Internal Review Board at Children's Hospital Oakland. Solutions and test drugs were perfused into one nostril at ˜5 ml/min at room temperature (23-25° C.). NaCl solution contained (in mM): 145 NaCl, 4 KCl, 1 CaCl2, 1 MgCl2, 10 Hepes, pH=7.4. In Cl free solutions all Cl salts were replaced by the respective gluconate salts. All solutions were sterile filtered before use. NPD was sensed with an Ag/AgCl/agar electrode placed in the perfusing tube with respect to an electrode placed on a slightly scratched skin part on the forearm (Alton, E. W. F. W., Currie, A. D., Logan-Sinclair, R., Warner, J. O., Hodson, M. E. & Geddes, D. M. (1990) Eur. Resp. J. 3, 922-926).
In vivo effects of ascorbic acid on Cl transport were evaluated using the nasal potential difference (NPD) assay for Cl channel function. The Cl-selective NPD was measured in amiloride-containing (100 μm) and chloride-free solutions. These experiments served as an important control to verify the significance of the transepithelial results obtained with ascorbic acid in Calu-3 cells. In close agreement with the transepithelial measurements, NPD was progressively hyperpolarized during the exposure of the nasal mucosa to L-ascorbic acid (by −6.7±0.4 mV, n=3) and the cAMP-stimulating agonist isoproterenol (by −5.5±0.5 mV, n=4) (FIG. 21C). A dose of 300 μm L-ascorbic acid hyperpolarized NPD to 72% of the NPD in presence of the cAMP agonist isoproterenol (10 μM).

[2] = system: wildtype CFTR-corrected CF15 monolayers; assay: Short-circuit current across wildtype CFTR-corrected CF15 monolayers; format: cell-based, human
Experimental: Human airway cell culture. The human submucosal serous gland-like cell line Calu-3, the CF nasal epithelial cell line homozygous for ΔF508 CFTR (CF15) and human tracheal primary cultures (hTE) were cultured as described (Jefferson, D. M., Valentich, J. D., Marini, F. C., Grubman, S. A., Iannuzzi, M. C., Dorkin, H. L., Li, M., Klinger, K. W. & Welsh, M. J. (1990) Am. J. Physiol. 259, L496-L505. Sachs, L. A., Finkbeiner, W. E. & Widdicombe, J. H. (2003) In Vitro Cell Dev. Biol. Anim. 39, 56-62.). Wildtype CFTR-corrected CF15 cells were generated via adenovirus-mediated gene transfer. Growth media were nominally free of ascorbic acid (<10 μm, University Pathology Inc., Salt Lake City, Utah). For transepithelial measurements cells were grown on permeable filter inserts and used after 3 to 10 days.
Short-circuit current measurement. Calu-3 or CF15 cells were grown as monolayers, mounted in Ussing chambers and short-circuit current (ISC) was recorded as described (Illek, B. & Fischer, H. (1998) Am. J. Physiol. 275, L902-L910). At 20-50 second intervals, transepithelial voltage was clamped from zero to 2 mV and the transepithelial resistance (Rte) was calculated. A serosa-to-mucosa-directed Cl gradient was applied. Serosal Ussing chamber solution contained (in mM): 120 NaCl, 20 NaHCO3, 5 KHCO3, 1.2 NaH2PO4, 5.6 glucose, 2.5 CaCl2, 1.2 MgCl2. In mucosal Ussing chamber solutions, all Cl salts were exchanged for gluconate salts.
The CF15 cell line was used to determine whether ascorbate-stimulated Cl currents were solely mediated by the CFTR Cl conductance. The CF15 cell line is characterized by the absence of functional CFTR in the apical plasma membrane but the presence of other non-CFTR Cl conductances (Jefferson, D. M., Valentich, J. D., Marini, F. C., Grubman, S. A., Iannuzzi, M. C., Dorkin, H. L., Li, M., Klinger, K. W. & Welsh, M. J. (1990) Am. J. Physiol. 259, L496-L505). A concentration of L-ascorbic acid that lay within the upper plateau of the dose response curve (500 μm) was applied and ascorbate-stimulated Cl currents in CF15 vs. wildtype CFTR-corrected CF15 monolayers was compared (FIG. 23A). […] The defective response to L-ascorbic acid was reversed in wildtype CFTR-corrected CF15 epithelia such that ISC responded promptly to L-ascorbic acid (ΔISC=7.5±0.5 μA/cm^2, n=6). The ascorbate-stimulated current was further activated by the cAMP agonist forskolin and total stimulated ISC averaged 12.1±1.1 μA/cm^2 (FIG. 4B). The ascorbate-stimulated Cl current reached 60±15% of the forskolin-stimulated current in CFTR-corrected CF15 monolayers, which was close to the corresponding findings in Calu-3 monolayers (68%, see FIG. 21A). The absence of ascorbate-stimulated Cl currents in CF15 monolayers supports the notion that non-CFTR Cl conductances were not activated by L-ascorbic acid.
In this example, chloride currents stimulated by L-ascorbate or D-ascorbate were measured in CF15 versus. wildtype CFTR-corrected CF15 monolayers. A concentration of L-ascorbate (1 mM) or D-isoascorbate (300 μm) that lay within the upper plateau of the dose-response curve was applied to cells and the resulting chloride currents stimulated in CF15 versus wildtype CFTR-corrected CF15 monolayers were measured (FIG. 25 A-H). All experiments were performed in the presence of the sodium channel blocker amiloride. […]

O=C1O[C@H](C(O)CO)C(O)=C1O (stereo partly drawn) [L-ascorbic acid, L-xyloascorbic acid]
transepithelial chloride currents in unstimulated tissue (Calu-3 monolayers): very effectively stimulated transepithelial chloride secretion; also recorded: very effectively stimulated transepithelial chloride currents
NPD hyperpolarized to % of the NPD in presence of isoproterenol ([1]; 300 μm L-ascorbic acid vs isoproterenol 10 μM): 72%
NPD hyperpolarized by ([1]; L-ascorbic acid, amiloride (100 μm), chloride-free, n=3): −6.7±0.4 mV
ascorbate-stimulated Cl current, % of the forskolin-stimulated current [2]: 60±15%
ΔIsc ([2]; L-ascorbate 1 mM, amiloride, n=6): 7.5±0.5 μA/cm2
ΔISC ([2]; L-ascorbic acid 500 μm, n=6): 7.5±0.5 μA/cm^2

From US8138158B2, “Compositions and methods for therapy for diseases characterized by defective chloride transport” (Children's Hospital & Research Center at Oakland, priority 1997, dated 2012)
